Data as given in patent US9266870B2 (TAISHO PHARMACEUTICAL CO., LTD., priority 2012, dated 2016).
Read-outs that look alike come from different tables or passages of the source.

Key:
[1] = target: human orexin-1 receptor (hOX1R) (Homo sapiens (Human), UniProt O43613); assay: Measurement of orexin antagonistic activity (intracellular Ca2+ fluorescence, FDSS), hOX1R; type: cell-based; conditions: ligand peptide (modified human orexin-A) 300 pM, maximum fluorescence intensity
Procedure: (§1) Chinese hamster ovary (CHO) cells forcibly expressing the hOX1R and hOX2R were seeded into a 96 well Black clear bottom plate (Nunc) at 20,000 cells per well, which were cultured in Ham's F-12 medium containing 0.1 mM MEM non-essential amino acids, 0.5 mg/ml G418, 10% fetal bovine serum (all by Invitrogen) for 16 hours under the conditions of 37° C., 5% CO2. After removing the medium, 100 μL of 0.5 μM Fluo-4AM ester (Dojin) in an assay buffer (25 mM HEPES (Dojin), Hank's balanced salt solution (Invitrogen), 0.1% bovine serum albumin, 2.5 mM probenecid, 200 μg/ml Amaranth (all by Sigma-Aldrich), pH 7.4) was added and the cells were incubated for 60 minutes at 37° C., 5% CO2. After removing the assay buffer containing fluo-3AM ester, the test compound was dissolved in dimethyl sulfoxide to be 10 mM and diluted with the assay buffer, 150 μL of which was added and incubated for 30 minutes.
(§2) The reaction was measured for the fluorescence intensity of each well every second for 3 minutes using Functional Drug Screening System (FDSS; Hamamatsu Photonics K.K.), and the antagonistic activity was determined using the maximum fluorescence intensity as the indicator of intracellular Ca2+ concentration.

[2] = target: human orexin-2 receptor (hOX2R) (Homo sapiens (Human), UniProt O43614); assay: Measurement of orexin antagonistic activity (intracellular Ca2+ fluorescence, FDSS), hOX2R; type: cell-based
Procedure: as §1, with “The antagonistic activities of the test compounds on human orexin-1 receptor (hOX1R) and orexin-2 receptor (hOX2R) were measured by modifying from the method described in literature (Toshikatsu Okumura et al., Biochemical and Biophysical Research Communications 280, 976-981, 2001). Chinese” for “Chinese”
as §2

[3] = CHO cells forcibly expressing hOX1R, read-out: IC50 Value OX1
[4] = CHO cells forcibly expressing hOX2R, ligand peptide (modified human orexin-A) 3 nM, maximum fluorescence intensity, read-out: IC50 Value OX2

Chain of human orexin-2 receptor (hOX2R) (O43614 whole entry): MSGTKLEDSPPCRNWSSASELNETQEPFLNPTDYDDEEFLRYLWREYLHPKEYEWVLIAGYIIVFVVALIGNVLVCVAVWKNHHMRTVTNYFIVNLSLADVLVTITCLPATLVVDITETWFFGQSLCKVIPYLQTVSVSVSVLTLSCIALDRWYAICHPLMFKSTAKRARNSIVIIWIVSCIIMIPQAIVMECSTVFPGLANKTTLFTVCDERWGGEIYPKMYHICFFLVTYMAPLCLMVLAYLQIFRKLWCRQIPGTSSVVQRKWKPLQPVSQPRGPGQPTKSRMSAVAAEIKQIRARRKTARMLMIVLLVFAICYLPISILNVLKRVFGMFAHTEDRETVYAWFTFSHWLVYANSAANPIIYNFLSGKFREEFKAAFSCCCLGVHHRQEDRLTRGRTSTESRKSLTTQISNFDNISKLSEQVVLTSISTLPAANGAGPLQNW
Chain of human orexin-1 receptor (hOX1R) (O43613 whole entry): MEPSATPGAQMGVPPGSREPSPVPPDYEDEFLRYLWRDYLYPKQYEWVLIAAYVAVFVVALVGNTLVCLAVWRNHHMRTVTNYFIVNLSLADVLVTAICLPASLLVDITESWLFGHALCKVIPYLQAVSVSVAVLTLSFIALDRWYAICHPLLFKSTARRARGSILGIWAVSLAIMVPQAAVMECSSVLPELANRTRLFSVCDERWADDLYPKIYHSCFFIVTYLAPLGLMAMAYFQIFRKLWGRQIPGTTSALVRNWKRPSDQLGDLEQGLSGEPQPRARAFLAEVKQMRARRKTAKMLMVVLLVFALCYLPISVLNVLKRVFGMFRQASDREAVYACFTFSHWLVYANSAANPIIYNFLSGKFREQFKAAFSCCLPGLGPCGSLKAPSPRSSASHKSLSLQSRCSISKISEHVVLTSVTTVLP

Compound	IC50 [1, 3]	IC50 [2, 4]	IC50 ([1]; IC50 Value OX1, CHO cells forcibly expressing hOX1R)	IC50 [2]
Cc1ccc(-c2ncccn2)c(C(=O)N2CCCOC2Cc2noc(-c3ccc(F)cn3)n2)c1 (racemic) [Example 33, (±)-(2-[[5-(5-fluoropyridin-2-yl)-1,2,4-oxadiazol-3-yl]methyl]-1,3-oxazinan-3-yl) [5-methyl-2-(pyrimidin-2-yl)phenyl]methanone]	3590 nM	4540 nM	–	–
Cc1ccc(-c2ncccn2)c(C(=O)N2CCCOC2Cc2cnn(-c3ccc(F)cn3)c2)c1 (racemic) [Example 42, (±)-[2-[[1-(5-fluoropyridin-2-yl)-1H-pyrazol-4-yl]methyl]-1,3-oxazinan-3-yl] [5-methyl-2-(pyrimidin-2-yl)phenyl]methanone]	17.2 nM	20.4 nM	–	–
Cc1ccc(-n2nccn2)c(C(=O)N2CCOC2Cn2cc(-c3ccc(F)cn3)cn2)c1 (single isomer, unassigned; (-)) [Example 2, (−)-(2-[[4-(5-fluoropyridin-2-yl)-1H-pyrazol-1-yl]-methyl]-1,3-oxazolidin-3-yl)[5-methyl-2-(2H-1,2,3-triazol-2-yl)phenyl] methanone]	14.3 nM	18.6 nM	–	–
Cc1ccc(-n2nccn2)c(C(=O)N2CCCOC2Cn2ccc(-c3ccc(F)cn3)n2)c1 (single isomer, unassigned; (-)) [Example 3, (−)-(2-[[3-(5-fluoropyridin-2-yl)-1H-pyrazol-1-yl]-methyl]-1,3-oxazinan-3-yl)[5-methyl-2-(2H-1,2,3-triazol-2-yl)phenyl] methanone]	–	–	0.7 nM	1.2 nM
Cc1ccc(-n2nccn2)c(C(=O)N2CCOC2Cn2ccc(-c3ccc(F)cc3)n2)n1 (single isomer, unassigned; (-)) [Example 26, (−)-(2-[[3-(4-fluorophenyl)-1H-pyrazol-1-yl]methyl]-1,3-oxazolidin-3-yl) [6-methyl-3-(2H-1,2,3-triazol-2-yl)pyridin-2-yl] methanone]	21.7 nM	59.1 nM	–	–
Cc1ccc(-n2nccn2)c(C(=O)N2CCCOC2Cn2ccc(-c3ccc(F)cc3)n2)n1 (single isomer, unassigned; (-)) [Example 27, (−)-(2-[[3-(4-fluorophenyl)-1H-pyrazol-1-yl]methyl]-1,3-oxazinan-3-yl)[6-methyl-3-(2H-1,2,3-triazol-2-yl)pyridin-2-yl]methanone]	0.9 nM	3 nM	–	–
Cc1ccc(-c2ncccn2)c(C(=O)N2CCCOC2Cn2ccc(-c3ccc(F)cc3)n2)n1 (single isomer, unassigned; (-)) [Example 28, (−)-(2-[[3-(4-fluorophenyl)-1H-pyrazol-1-yl]methyl]-1,3-oxazinan-3-yl)[6-methyl-3-(pyrimidin-2-yl)pyridin-2-yl] methanone]	2.4 nM	4 nM	–	–
O=C(c1cc(F)ccc1-n1nccn1)N1CCCOC1Cn1ccc(-c2ccc(F)cn2)n1 (single isomer, unassigned; (-)) [Example 29, (−)-(2-[[3-(5-fluoropyridin-2-yl)-1H-pyrazol-1-yl]methyl]-1,3-oxazinan-3-yl)[5-fluoro-2-(2H-1,2,3-triazol-2-yl)phenyl]methanone]	3.2 nM	1.2 nM	–	–
Cc1ccc(-c2ncccn2)c(C(=O)N2CCCOC2Cn2ccc(-c3ccc(F)cn3)n2)c1 (single isomer, unassigned; (-)) [Example 30]	2.6 nM	3 nM	–	–
Cc1ccc(-n2nccn2)c(C(=O)N2CCCOC2Cn2cc(-c3ccc(F)cc3)cn2)n1 (single isomer, unassigned; (-)) [Example 31, (−)-(2-[[4-(4-fluorophenyl)-1H-pyrazol-1-yl]methyl]-1,3-oxazinan-3-yl) [6-methyl-3-(2H-l,2,3-triazol-2-yl)pyridin-2-yl] methanone]	10.9 nM	7.3 nM	–	–
Cc1ccc(-c2ncccn2)c(C(=O)N2CCCOC2Cn2cc(-c3ccc(F)cc3)cn2)n1 (single isomer, unassigned; (-)) [Example 32, (−)-(2-[[4-(4-fluorophenyl)-1H-pyrazol-1-yl]methyl]-l,3-oxazinan-3-yl)[6-methyl-3-(pyrimidin-2-yl)pyridin-2-yl] methanone]	34.4 nM	22.6 nM	–	–
O=C(c1cc(F)ccc1-c1ncccn1)N1CCCOC1Cn1ccc(-c2ccc(F)cn2)n1 (single isomer, unassigned; (-)) [Example 34, (−)-[2-[[3-(5-fluoropyridin-2-yl)-1H-pyrazol-1-yl]methyl]-l,3-oxazinan-3-yl] [5-fluoro-2-(pyrimidin-2-yl)phenyl]methanone]	2.2 nM	6.2 nM	–	–
Cc1ccc(-n2nccn2)c(C(=O)N2CCCOC2Cc2noc(-c3ccc(F)cn3)n2)c1 (single isomer, unassigned; (-)) [Example 36, (−)-[2-[[5-(5-fluoropyridin-2-yl)-1,2,4-oxadiazol-3-yl]methyl]-1,3-oxazinan-3-yl] [5-methyl-2-(2H-1,2,3-triazol-2-yl)phenyl] methanone]	3.8 nM	6.9 nM	–	–
Cc1ccc(-n2nccn2)c(C(=O)N2CCCOC2Cc2noc(-c3ccc(F)cc3)n2)c1 (single isomer, unassigned; (-)) [Example 37, (−)-[2-[[5-(4-fluorophenyl)-1,2,4-oxadiazol-3-yl]methyl]-1,3-oxazinan-3-yl] [5-methyl-2-(2H-1,2,3-triazol-2-yl)phenyl] methanone]	1.1 nM	1.7 nM	–	–
Cc1ccc(-n2nccn2)c(C(=O)N2CCCOC2Cc2noc(-c3ccc(F)cc3)n2)n1 (single isomer, unassigned; (-)) [Example 38, (−)-[2-[[5-(4-fluorophenyl)-1,2,4-oxadiazol-3-yl]methyl]-1,3-oxazinan-3-yl] [6-methyl-3-(2H-1,2,3-triazol-2-yl)pyridin-2-yl] methanone]	2.1 nM	7.3 nM	–	–
Cc1ccc(-c2ncccn2)c(C(=O)N2CCCOC2Cn2ccc(-c3ccc(F)cc3)n2)c1 (single isomer, unassigned; (-)) [Example 41, (−)-[2-{[3-(4-Fluorophenyl)-1H-pyrazol-1-yl]methyl}-1,3-oxazinan-3-yl][5-methyl-2-(pyrimidin-2-yl)phenyl]methanone]	1 nM	1 nM	–	–
Cc1ccc(-n2nccn2)c(C(=O)N2CCOC2Cc2ccn(-c3ccc(F)cn3)n2)c1 (single isomer, unassigned; (-)) [Example 45, (−)-[2-{[1-(5-Fluoropyridin-2-yl)-1H-pyrazol-3-yl]methyl}-1,3-oxazolidin-3-yl][5-methyl-2-(2H-1,2,3-triazol-2-yl)phenyl]methanone]	2.7 nM	12.1 nM	–	–
Cc1ccc(-n2nccn2)c(C(=O)N2CCOC2Cc2cnn(-c3ccc(F)cn3)c2)c1 (single isomer, unassigned; (-)) [Example 46, (−)-[2-{[1-(5-Fluoropyridin-2-yl)-1H-pyrazol-4-yl]methyl}-1,3-oxazolidin-3-yl][5-methyl-2-(2H-1,2,3-triazol-2-yl)phenyl]methanone]	31.9 nM	38.7 nM	–	–
Cc1ccc(-n2nccn2)c(C(=O)N2[C@H](C)CO[C@H]2Cn2cc(-c3ccc(F)cn3)cn2)c1 [Example 8, [(2S,4R)-2-[[4-(5-fluoropyridin-2-yl)-1H-pyrazol-1-yl]-methyl]-4-methyl-1,3-oxazolidin-3-yl] [5-methyl-2-(2H-1,2,3-triazol-2-yl)phenyl] methanone]	60.9 nM	460 nM	–	–
Cc1ccc(-n2nccn2)c(C(=O)N2[C@H](Cn3cc(-c4ccc(F)cn4)cn3)OC[C@@H]2C)c1 [Example 10, (−)-[(2S,4S)-2-[[4-(5-fluoropyridin-2-yl)-1H-pyrazol-1-yl]methyl]-4-methyl-1,3-oxazolidin-3-yl] [5-methyl-2-(2H-1,2,3-triazol-2-yl)phenyl] methanone]	201 nM	273 nM	–	–
Cc1ccc(-n2nccn2)c(C(=O)N2[C@H](Cn3cc(-c4ccc(F)cn4)cn3)OCC[C@@H]2C)c1 [Example 39, [(2S,4S)-2-{[4-(5-Fluoropyridin-2-yl)-1H-pyrazol-1-yl]methyl}-4-methyl-1,3-oxazinan-3-yl}[5-methyl-2-(2H-1,2,3-triazol-2-yl)phenyl]methanone]	81.2 nM	46.6 nM	–	–
